Laboratory results as given in PubChem BioAssay (NCI).
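All cell lines were grown in 96-well plates and treated with compound for 48 hours. The concentration for full growth arrest is given as TGI.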

What was measured:
Test in all cases: NCI tumour cell line growth inhibition, 48 h
SK-OV-3 ovarian = tested on: SK-OV-3 ovarian
NCI-H226 lung = tested on: NCI-H226 lung
ACHN renal = tested on: ACHN renal
EKVX NSCLC = tested on: EKVX NSCLC
HT29 colon = tested on: HT29 colon
IGROV1 ovarian = tested on: IGROV1 ovarian
SNB-19 CNS = tested on: SNB-19 CNS
OVCAR-5 ovarian = tested on: OVCAR-5 ovarian
SK-MEL-28 melanoma = tested on: SK-MEL-28 melanoma
HOP-92 NSCLC = tested on: HOP-92 NSCLC
UACC-257 melanoma = tested on: UACC-257 melanoma
HL-60(TB) leukemia = tested on: HL-60(TB) leukemia
OVCAR-4 ovarian = tested on: OVCAR-4 ovarian
CAKI-1 renal = tested on: CAKI-1 renal
K-562 leukemia = tested on: K-562 leukemia
HCT-15 colon = tested on: HCT-15 colon
HS 578T breast = tested on: HS 578T breast
SR leukemia = tested on: SR leukemia
SF-539 CNS = tested on: SF-539 CNS
SNB-75 CNS = tested on: SNB-75 CNS
SF-295 CNS = tested on: SF-295 CNS
A549 NSCLC = tested on: A549 NSCLC
HOP-62 NSCLC = tested on: HOP-62 NSCLC
TK-10 renal = tested on: TK-10 renal
NCI/ADR-RES ovarian = tested on: NCI/ADR-RES ovarian
LOX IMVI melanoma = tested on: LOX IMVI melanoma
MDA-MB-231 breast = tested on: MDA-MB-231 breast
HCT-116 colon = tested on: HCT-116 colon
HCC-2998 colon = tested on: HCC-2998 colon
PC-3 prostate = tested on: PC-3 prostate
CCRF-CEM leukemia = tested on: CCRF-CEM leukemia
MALME-3M melanoma = tested on: MALME-3M melanoma
SW-620 colon = tested on: SW-620 colon
OVCAR-8 ovarian = tested on: OVCAR-8 ovarian
SK-MEL-5 melanoma = tested on: SK-MEL-5 melanoma
786-0 renal = tested on: 786-0 renal
UACC-62 melanoma = tested on: UACC-62 melanoma
NCI-H522 lung = tested on: NCI-H522 lung
MCF7 breast = tested on: MCF7 breast
UO-31 renal = tested on: UO-31 renal
MOLT-4 leukemia = tested on: MOLT-4 leukemia
T-47D breast = tested on: T-47D breast
KM12 colon = tested on: KM12 colon
RXF 393 renal = tested on: RXF 393 renal
RPMI-8226 leukemia = tested on: RPMI-8226 leukemia
SK-MEL-2 melanoma = tested on: SK-MEL-2 melanoma
NCI-H23 lung = tested on: NCI-H23 lung
BT-549 breast = tested on: BT-549 breast
COLO 205 colon = tested on: COLO 205 colon
A498 renal = tested on: A498 renal
M14 melanoma = tested on: M14 melanoma
DU-145 prostate = tested on: DU-145 prostate
MDA-N = tested on: MDA-N
OVCAR-3 ovarian = tested on: OVCAR-3 ovarian
SN12C renal = tested on: SN12C renal
U251 CNS = tested on: U251 CNS
MDA-MB-435 = tested on: MDA-MB-435
SF-268 CNS = tested on: SF-268 CNS
NCI-H460 lung = tested on: NCI-H460 lung

Question: For `CCOP(=O)(OCC)C(c1ccccc1)N(C(=O)NC(F)(F)F)c1ccc(C)cc1` (stereo not drawn), which TGI (SK-OV-3 ovarian) is on record?
Answer: > 100 µM

Question: What about the TGI (NCI-H226 lung) of the same compound?
Answer: > 100 µM

Question: And the TGI (ACHN renal)?
Answer: > 100 µM

Question: What about the TGI (EKVX NSCLC) of the same compound?
Answer: > 100 µM

Question: What about the TGI (HT29 colon) of the same compound?
Answer: > 100 µM

Question: And the TGI (IGROV1 ovarian)?
Answer: > 100 µM

Question: What about the TGI (SNB-19 CNS) of the same compound?
Answer: > 100 µM

Question: And the TGI (OVCAR-5 ovarian)?
Answer: > 100 µM

Question: What about the TGI (SK-MEL-28 melanoma) of the same compound?
Answer: > 100 µM

Question: And the TGI (HOP-92 NSCLC)?
Answer: > 100 µM

Question: And the TGI (UACC-257 melanoma)?
Answer: > 100 µM

Question: What about the TGI (HL-60(TB) leukemia) of the same compound?
Answer: > 100 µM

Question: What about the TGI (OVCAR-4 ovarian) of the same compound?
Answer: > 100 µM

Question: What about the TGI (CAKI-1 renal) of the same compound?
Answer: > 100 µM

Question: And the TGI (K-562 leukemia)?
Answer: > 100 µM

Question: What about the TGI (HCT-15 colon) of the same compound?
Answer: > 100 µM

Question: What about the TGI (HS 578T breast) of the same compound?
Answer: > 100 µM

Question: What about the TGI (SR leukemia) of the same compound?
Answer: > 100 µM

Question: And the TGI (SF-539 CNS)?
Answer: > 100 µM

Question: What about the TGI (SNB-75 CNS) of the same compound?
Answer: > 100 µM

Question: And the TGI (SF-295 CNS)?
Answer: > 100 µM

Question: And the TGI (A549 NSCLC)?
Answer: > 100 µM

Question: What about the TGI (HOP-62 NSCLC) of the same compound?
Answer: > 100 µM

Question: What about the TGI (TK-10 renal) of the same compound?
Answer: > 100 µM

Question: And the TGI (NCI/ADR-RES ovarian)?
Answer: > 100 µM

Question: And the TGI (LOX IMVI melanoma)?
Answer: > 100 µM

Question: What about the TGI (MDA-MB-231 breast) of the same compound?
Answer: > 100 µM

Question: What about the TGI (HCT-116 colon) of the same compound?
Answer: > 100 µM

Question: What about the TGI (HCC-2998 colon) of the same compound?
Answer: > 100 µM

Question: What about the TGI (PC-3 prostate) of the same compound?
Answer: > 100 µM

Question: And the TGI (CCRF-CEM leukemia)?
Answer: > 100 µM

Question: And the TGI (MALME-3M melanoma)?
Answer: > 100 µM

Question: What about the TGI (SW-620 colon) of the same compound?
Answer: > 100 µM

Question: What about the TGI (OVCAR-8 ovarian) of the same compound?
Answer: > 100 µM

Question: And the TGI (SK-MEL-5 melanoma)?
Answer: > 100 µM

Question: And the TGI (786-0 renal)?
Answer: > 100 µM

Question: What about the TGI (UACC-62 melanoma) of the same compound?
Answer: > 100 µM

Question: And the TGI (NCI-H522 lung)?
Answer: > 100 µM

Question: And the TGI (MCF7 breast)?
Answer: > 100 µM

Question: What about the TGI (UO-31 renal) of the same compound?
Answer: > 100 µM

Question: And the TGI (MOLT-4 leukemia)?
Answer: > 100 µM

Question: What about the TGI (T-47D breast) of the same compound?
Answer: > 100 µM

Question: And the TGI (KM12 colon)?
Answer: > 100 µM

Question: And the TGI (RXF 393 renal)?
Answer: > 100 µM

Question: And the TGI (RPMI-8226 leukemia)?
Answer: > 100 µM

Question: And the TGI (SK-MEL-2 melanoma)?
Answer: > 100 µM

Question: And the TGI (NCI-H23 lung)?
Answer: > 100 µM

Question: What about the TGI (BT-549 breast) of the same compound?
Answer: > 100 µM

Question: What about the TGI (COLO 205 colon) of the same compound?
Answer: > 100 µM

Question: What about the TGI (A498 renal) of the same compound?
Answer: > 100 µM

Question: What about the TGI (M14 melanoma) of the same compound?
Answer: > 100 µM

Question: What about the TGI (DU-145 prostate) of the same compound?
Answer: > 100 µM

Question: And the TGI (MDA-N)?
Answer: > 100 µM

Question: And the TGI (OVCAR-3 ovarian)?
Answer: > 100 µM

Question: What about the TGI (SN12C renal) of the same compound?
Answer: > 100 µM

Question: What about the TGI (U251 CNS) of the same compound?
Answer: > 100 µM

Question: And the TGI (MDA-MB-435)?
Answer: > 100 µM

Question: What about the TGI (SF-268 CNS) of the same compound?
Answer: > 100 µM

Question: And the TGI (NCI-H460 lung)?
Answer: > 100 µM

Question: Which results are given for `COC(=O)[C@@H]1C=CCN1S(=O)(=O)c1ccc(C)cc1`?
Answer: TGI (SK-OV-3 ovarian): > 100 µM; TGI (NCI-H226 lung): > 100 µM; TGI (ACHN renal): > 100 µM; TGI (EKVX NSCLC): > 100 µM; TGI (HT29 colon): > 100 µM; TGI (IGROV1 ovarian): > 100 µM; TGI (SNB-19 CNS): > 100 µM; TGI (OVCAR-5 ovarian): > 100 µM; TGI (SK-MEL-28 melanoma): > 100 µM; TGI (HOP-92 NSCLC): > 100 µM; TGI (UACC-257 melanoma): > 100 µM; TGI (HL-60(TB) leukemia): 53.5 µM; TGI (OVCAR-4 ovarian): > 100 µM; TGI (CAKI-1 renal): 57.8 µM; TGI (K-562 leukemia): > 100 µM; TGI (HCT-15 colon): > 100 µM; TGI (HS 578T breast): > 100 µM; TGI (SR leukemia): 58.8 µM; TGI (SF-539 CNS): > 100 µM; TGI (SNB-75 CNS): > 100 µM; TGI (SF-295 CNS): > 100 µM; TGI (A549 NSCLC): > 100 µM; TGI (HOP-62 NSCLC): > 100 µM; TGI (TK-10 renal): > 100 µM; TGI (NCI/ADR-RES ovarian): > 100 µM; TGI (LOX IMVI melanoma): > 100 µM; TGI (MDA-MB-231 breast): > 100 µM; TGI (HCT-116 colon): > 100 µM; TGI (HCC-2998 colon): > 100 µM; TGI (PC-3 prostate): > 100 µM; TGI (CCRF-CEM leukemia): 72.1 µM; TGI (MALME-3M melanoma): > 100 µM; TGI (SW-620 colon): > 100 µM; TGI (OVCAR-8 ovarian): > 100 µM; TGI (SK-MEL-5 melanoma): > 100 µM; TGI (786-0 renal): > 100 µM; TGI (UACC-62 melanoma): > 100 µM; TGI (NCI-H522 lung): > 100 µM; TGI (MCF7 breast): > 100 µM; TGI (UO-31 renal): > 100 µM; TGI (MOLT-4 leukemia): > 100 µM; TGI (T-47D breast): > 100 µM; TGI (KM12 colon): > 100 µM; TGI (RXF 393 renal): > 100 µM; TGI (RPMI-8226 leukemia): > 100 µM; TGI (SK-MEL-2 melanoma): > 100 µM; TGI (NCI-H23 lung): > 100 µM; TGI (BT-549 breast): > 100 µM; TGI (COLO 205 colon): > 100 µM; TGI (A498 renal): > 100 µM; TGI (M14 melanoma): > 100 µM; TGI (DU-145 prostate): > 100 µM; TGI (MDA-N): > 100 µM; TGI (OVCAR-3 ovarian): > 100 µM; TGI (SN12C renal): > 100 µM; TGI (U251 CNS): > 100 µM; TGI (MDA-MB-435): 39.2 µM; TGI (SF-268 CNS): > 100 µM; TGI (NCI-H460 lung): > 100 µM
